Results on 32 compounds are retold here after patent US20250382270A1, “3-DIARYLMETHYLENES AND USES THEREOF” (Atux Iskay LLC, priority 2020, published 2025).

The subject of the first assay is A549 cells. Description: A549 cell growth inhibition assay (alamarBlue). The assay is classed as cell-based. The conditions noted are these: Homo sapiens, 72 hours treatment, alamarBlue fluorescence. Here is the method:
Example compounds 1a, 2, 4 and 6 were assayed in an A549 cell growth inhibition assay as follows. A549 cells were cultured in DMEM medium with supplement of 10% FBS and 1% Pen-strep. Assay conditions: to perform the proliferation assay, A549 cells were seeded at 5000 cells/90 μl growth medium/well on 96-well black clear-bottom tissue culture plate. Cells were incubated at 37° C. and 5% CO2 overnight to allow them to recover and reattach. Next day cells were treated with tested compounds for 72 hours. After treatment, cell proliferation was measured by Fluorescent quantitation of alamarBlue reagent. The alamarBlue assay incorporates a fluorometric/colorimetric growth indicator based on detection of metabolic activity. Specifically, resazurin, the active ingredient of alamarBlue reagent, is blue in color and virtually non-fluorescent. Upon entering cells, resazurin is reduced to resorufin, a compound that is red in color and highly fluorescent. Continued cell growth maintains a reduced environment, therefore increasing the overall fluorescence and color of the media surrounding cells. Our experiment has shown that the fluorescence intensity of alamarBlue reagent was directly proportional to cell number. To perform the alamarBlue assay, 10 μl of alamarBlue reagent was added to each well and the plate was incubated at 37° C. for an additional 1-4 hours. Fluorescence intensity was measured at an excitation of 530 nm and an emission of 590 nm using a BioTek Synergy™ 2 microplate reader.
Data analysis. Cell proliferation assays in triplicate were performed at each concentration. The fluorescent intensity data were analyzed using the computer software, Graphpad Prism. In the absence of the compound, the fluorescent intensity (Ft) in each data set was defined as 100%. In the absence of cells, the fluorescent intensity (Fb) in each data set was defined as 0%. The percent cell in the presence of each compound was calculated according to the following equation: % cell=(F-Fb)/(Ft-Fb), where F=the fluorescent intensity in the presence of the compound, Fb=the fluorescent intensity in the absence of cells, and Ft=the fluorescent intensity in the absence of the compound. The values of % cell versus a series of compound concentrations were then plotted using non-linear regression analysis of Sigmoidal dose-response curve generated with the equation Y=B+(T-B)/1+10^((LogEC50-X)×Hill Slope), where Y=percent cell, B=minimum percent cell, T=maximum percent cell, X=logarithm of compound and Hill Slope=slope factor or Hill coefficient. The IC50 value was determined by the concentration causing a half-maximal percent activity.
(Alamar Blue is a resazurin reagent that responds to reducing activity.)
For `COc1cccc2c1C(=O)c1c(O)c3c(c(O)c1C2=O)C[C@@](O)(C(=O)CO)C[C@@H]3O[C@H]1C[C@H](N)[C@H](O)[C@H](C)O1` [Doxorubicin, reference compound], the concentration for half-maximal inhibition (IC50) – broadly, the concentration that inhibits the measured activity by half – turned out to be 0.34 µM.
Still for that read-out and setting: under `O=S(=O)(Nc1ccc(OC(F)(F)F)cc1)N1CCCC(C(c2ccc(F)cc2)c2ccc(F)cc2)C1` (centres unmarked) [Example 1a, 3-(bis(4-fluorophenyl)methyl)-N-(4-(trifluoromethoxy)phenyl)piperidine-1-sulfonamide] stands 8.27 µM; under `O=S(=O)(Nc1ccccc1)N1CCCC(C(c2ccc(F)cc2)c2ccc(F)cc2)C1` (centres unmarked) [Example 2, 3-(bis(4-fluorophenyl)methyl)-N-phenylpiperidine-1-sulfonamide], 22.9 µM.
On the same count and under the same terms, as for `O=S(=O)(Nc1ccc(C(F)(F)F)cc1)N1CCCC(C(c2ccc(F)cc2)c2ccc(F)cc2)C1` (centres unmarked) [Example 4, 3-(bis(4-fluorophenyl)methyl)-N-(4-(trifluoromethyl)phenyl)piperidine-1-sulfonamide], the figure is 9.61 µM.
On the same count and under the same terms, under `O=S(=O)(Nc1ccc(Cl)cc1)N1CCCC(C(c2ccc(F)cc2)c2ccc(F)cc2)C1` (centres unmarked) [Example 6, 3-(bis(4-fluorophenyl)methyl)-N-(4-chlorophenyl)piperidine-1-sulfonamide] stands 12.8 µM.

The next assay relates to A172 glioblastoma cells. The experiment in a line: A172 cell growth inhibition assay (CellTiter-Glo). Type of assay: cell-based. The conditions noted are these: Homo sapiens, A 172, 48-72 hours treatment, CellTiter-Glo luminescence, test range 1-30 μM. Here is the method: Compounds were also assayed in an A172 cell growth inhibition assay as follows. A172 glioblastoma cells were cultured in Dulbecco's modified Eagle's medium (DMEM) supplemented with 10% fetal bovine serum and 1% Penicillin-streptomycin. Incubation was performed at 37° C. and 5% CO2.
A172 cells were seeded at 3000-3500 cells/90 ul growth medium per well on 96-well tissue culture plates. Cells were incubated overnight to allow them to recover and reattach. Next day cells were treated with tested compounds and incubated for 48-72 hours.
Cell Proliferation assays in triplicate were performed at each concentration. Compounds test range was 1-30 μM (0, 5, 10, 15, 20, 25, and 30). The compounds were dissolved in DMSO. A series of dilutions were made in 1% DMSO in growth medium so that the final concentration of DMSO is 0.1% in all of treatments.
After treatment, cells were allowed to equilibrate at room temperature for ½ to one hour. Cell proliferation was measured by Luminescence quantification using Promega CellTiter-Glo Luminescent Cell Viability Assay. To perform the assay, 100 μl of Celltiter-Glo substrate was added to each well, plates were shake for 2 minutes and allowed to equilibrate for 10 minutes at room temperature. Luminescence intensity was measured using the Spectramax i3x plate reader.
The Luminescence intensity data were analyzed using the computer software Graphpad Prism. In the absence of the compound, the luminescence intensity (Lr) in each data set was defined as 100% cell viability. The percent cell in the presence of each compound was calculated according to the following equation: […], where L=the luminescence intensity in the presence of the compound.
The values of % cell versus a series of compound concentrations (0, 5, 10, 15, 20, 25, and 30 μM) were then plotted using nonlinear regression analysis of Sigmoidal dose-response curve. IC50 values were determined by the concentration causing a half-maximal percent activity.
A general note: Cellular ATP, detected with luciferase, serves as a proxy for viable cell number.
Compound `O=S(=O)(Nc1ccc(OC(F)(F)F)cc1)N1CCCC(C(c2ccc(F)cc2)c2ccc(F)cc2)C1` (centres unmarked) [Example 1a, 3-(bis(4-fluorophenyl)methyl)-N-(4-(trifluoromethoxy)phenyl)piperidine-1-sulfonamide] came in with an IC50 of 12.1 µM.
On the same count and under the same terms, as for `O=S(=O)(Nc1ccccc1)N1CCCC(C(c2ccc(F)cc2)c2ccc(F)cc2)C1` (centres unmarked) [Example 2, 3-(bis(4-fluorophenyl)methyl)-N-phenylpiperidine-1-sulfonamide], the figure is 23 µM; as for `O=S(=O)(Nc1ccc(C(F)(F)F)cc1)N1CCCC(C(c2ccc(F)cc2)c2ccc(F)cc2)C1` (centres unmarked) [Example 4, 3-(bis(4-fluorophenyl)methyl)-N-(4-(trifluoromethyl)phenyl)piperidine-1-sulfonamide], 17.1 µM; as for `O=S(=O)(Nc1ccc(OC(F)(F)F)cc1)N1CCOC(C(c2ccc(F)cc2)c2ccc(F)cc2)C1` (centres unmarked) [Example 19, 2-(bis(4-fluorophenyl)methyl)-N-(4-(trifluoromethoxy)phenyl)morpholine-4-sulfonamide], 18.2 µM.
Still for that read-out and setting: as for `O=S(=O)(Nc1ccc(C(F)(F)F)cc1)N1CCOC(C(c2ccc(F)cc2)c2ccc(F)cc2)C1` (centres unmarked) [Example 22], the figure is 26 µM; as for `O=S(=O)(Nc1ccc(Cl)cc1)N1CCOC(C(c2ccc(F)cc2)c2ccc(F)cc2)C1` (centres unmarked) [Example 25], 19.4 µM; as for `O=S(=O)(Nc1cccc(Cl)c1)N1CCOC(C(c2ccc(F)cc2)c2ccc(F)cc2)C1` (centres unmarked) [Example 26], 28.2 µM.
With `O=S(=O)(Nc1ccc(OC(F)(F)F)cc1)N1CCCC(C2c3ccccc3CCc3ccccc32)C1` (centres unmarked) [Example 37], the concentration for half-maximal inhibition (IC50) was 11 µM.
Same read-out and setting: as for `O=S(=O)(Nc1ccc(C(F)(F)F)cc1)N1CCCC(C2c3ccccc3CCc3ccccc32)C1` (centres unmarked) [Example 40], the figure is 15.8 µM.
Still for that read-out and setting: under `O=[N+]([O-])c1ccc(NS(=O)(=O)N2CCCC(C3c4ccccc4CCc4ccccc43)C2)cc1` (centres unmarked) [Example 42] stands 51 µM; under `O=S(=O)(Nc1ccc(OC(F)(F)F)cc1)N1CCCC(C2c3ccc(F)cc3CCc3cc(F)ccc32)C1` (centres unmarked) [Example 71], 13 µM.
The same measure, in the same setting: as for `O=S(=O)(Nc1ccc(Cl)c(Cl)c1)N1CCOC(C(c2ccc(F)cc2)c2ccc(F)cc2)C1` (centres unmarked) [Example 93], the figure is 45 µM; as for `O=S(=O)(Nc1cc(Cl)cc(Cl)c1)N1CCOC(C(c2ccc(F)cc2)c2ccc(F)cc2)C1` (centres unmarked) [Example 94], 23.2 µM; as for `O=S(=O)(NCc1ccc(F)cc1)N1CCCC(C2c3ccccc3CCc3ccccc32)C1` (centres unmarked) [Example 96], 16.1 µM.
As for `O=S(=O)(NCc1ccc(F)cc1)N1CCOC(C(c2ccc(F)cc2)c2ccc(F)cc2)C1` (centres unmarked) [Example 97], the concentration for half-maximal inhibition (IC50) was 27.2 µM.
The same measure, in the same setting: under `O=S(=O)(NCc1ccc(C(F)(F)F)cc1)N1CCCC(C2c3ccccc3CCc3ccccc32)C1` (centres unmarked) [Example 98] stands 10.4 µM; under `O=S(=O)(Nc1ncc(C(F)(F)F)cn1)N1CCCC(C2c3ccccc3CCc3ccccc32)C1` (centres unmarked) [Example 99], 25.3 µM; under `O=S(=O)(Nc1ccc(Cl)c(Cl)c1)N1CCCC(C(c2ccc(F)cc2)c2ccc(F)cc2)C1` (centres unmarked) [Example 100], 16.2 µM.
On the same count and under the same terms, under `O=S(=O)(Nc1cccc(C(F)(F)F)c1)N1CCCC(C(c2ccc(F)cc2)c2ccc(F)cc2)C1` (centres unmarked) [Example 101] stands 22.1 µM; under `O=S(=O)(Nc1cccc(C(F)(F)F)c1)N1CCOC(C(c2ccc(F)cc2)c2ccc(F)cc2)C1` (centres unmarked) [Example 102], 20.6 µM; under `CC(C)(C)OC(=O)Nc1ccc(NS(=O)(=O)N2CCCC(C(c3ccc(F)cc3)c3ccc(F)cc3)C2)cc1` (centres unmarked) [Example 103], 10.3 µM.
Same read-out and setting: under `O=S(=O)(Nc1ccc(OC(F)(F)F)cc1)N1CCCC(=C(c2ccc(F)cc2)c2ccc(F)cc2)C1` [Example 104] stands 14.8 µM; under `O=S(=O)(Nc1ccc(OC(F)(F)F)cc1)N1CCCC(=C(c2ccccc2)c2ccccc2)C1` [Example 105], 20.3 µM.
`O=S(=O)(Nc1ccc2c(c1)OC(F)(F)O2)N1CCCC(C2c3ccccc3CCc3ccccc32)C1` (centres unmarked) [Example 106]: the IC50 came out at 12.8 µM.
Still for that read-out and setting: as for `O=S(=O)(Nc1ccc(Cl)cc1)N1CCCC(=C(c2ccc(F)cc2)c2ccc(F)cc2)C1` [Example 108], the figure is 16.1 µM.
Compound `O=S(=O)(Nc1ccc(C(F)(F)F)cc1)N1CCCC(=C(c2ccc(F)cc2)c2ccc(F)cc2)C1` [Example 109] showed a half-inhibitory concentration (IC50) of 19.2 µM.
As to `O=S(=O)(Nc1ccccc1)N1CCCC(=C(c2ccc(F)cc2)c2ccc(F)cc2)C1` [Example 110], half-maximal inhibition (IC50) required 25 µM.
The same measure, in the same setting: under `O=S(=O)(Nc1cccc(C(F)(F)F)c1)N1CCCC(=C(c2ccc(F)cc2)c2ccc(F)cc2)C1` [Example 111] stands 30 µM.
Still for that read-out and setting: under `O=S(=O)(Nc1cccc(OC(F)(F)F)c1)N1CCCC(=C(c2ccc(F)cc2)c2ccc(F)cc2)C1` [Example 112] stands 24 µM.
The same measure, in the same setting: as for `O=S(=O)(Nc1cccc(OC(F)(F)F)c1)N1CCCC(C2c3ccccc3CCc3ccccc32)C1` (centres unmarked) [Example 113], the figure is 10.8 µM.
